Key:
Format in all cases: in vivo
[1] = system: skin, volar forearm test sites; assay: Comparative irritation panel study vs ester based emollient, TEWL by POST protocol (Example 4); details: FIG. 9; 10 gsm polypropylene nonwoven; 0.6% Cirrasol Care + 12% additive; 24 hours under occlusion patch; 16 panellists
Description: 10 gsm polypropylene nonwoven textile was cut into 11 mm diameter circles. Each circle was individually treated with water based dispersions then dried to achieve a treat rate of a) 0.6% low-irritation hygiene finish (Cirrasol™ Care ex. Croda, Sample A) based on weight of textile, or b) 0.6% low-irritation hygiene finish and 12% di-PPG-2 myreth-10 adipate (a diester skin care additive in accordance with the present invention, Sample B), or c) 0.6% low-irritation hygiene finish and 12% of a saturated tri-ester based emollient (Crodamol™ GTCC ex. Croda, Sample C). Treat rates are expressed as percentage by weight of textile. […]
(§1) For each panellist three test sites on each volar forearm were identified and marked (i.e. 6 test sites in total per panellist were assessed). An initial trans-epidermal water loss (TEWL) reading was taken using an AquaFlux AF200 Instrument to ensure no initial skin irritation at each of the 6 test sites. […]
(§2) After 24 hours panellists were again acclimatised to the laboratory environment for 20 mins at 20° C. and 45% relative humidity. TEWL was measured using the POST (post occlusion stress test) protocol. Under this test the occlusion patch is removed, along with the textile sample, the test site is then wiped of any surface moisture, and then TEWL readings are taken immediately using the same AquaFlux AF200 Instrument. […]

[2] = system: skin, volar forearm test sites; assay: Comparative irritation panel study vs glycerine based emollient, TEWL by POST protocol (Example 3); details: FIG. 8; 10 gsm polypropylene nonwoven; 0.6% Cirrasol Care + 12% additive; 24 hours under occlusion patch; 16 panellists
Description: 10 gsm polypropylene nonwoven textile was cut into 11 mm diameter circles. Each circle was individually treated with water based dispersions then dried to achieve a treat rate of a) 0.6% low-irritation hygiene finish (CirrasolTM Care ex. Croda, Sample A), or b) 0.6% low irritation hygiene finish and 12% […]-10 adipate (a diester skin care additive in accordance with the present invention, Sample B), or c) 0.6% low-irritation hygiene finish and 12% of a glycerine based emollient (Sample C). Treat rates are expressed as percentage by weight of textile. An irritation panel study was carried out, the study included 16 individual panellists. […] For each panellist three test sites on each volar forearm were identified and marked (i.e. 6 test sites in total per panellist were assessed). An initial trans-epidermal water loss (TEWL) reading was taken using an AquaFlux AF200 Instrument to ensure no initial skin irritation at each of the 6 test sites. […] TEWL was measured using the POST (post occlusion stress test) protocol. Under this test the occlusion patch is removed, along with the textile sample, the test site is then wiped of any surface moisture, and then TEWL readings are taken immediately using the same AquaFlux AF200 Instrument. TEWL is measured until the water loss rate peaks, and for the following 5 minutes. Results are measured in total water loss for 5 minutes after water loss rate peaks. […]

[3] = system: skin, volar forearm test sites; assay: Irritation panel study, TEWL by POST (post occlusion stress test) protocol, SLS irritant model (Example 1); details: FIG. 1; 10 gsm polypropylene nonwoven with 1% SLS + 2% diester vs 1% SLS alone (Sample A); 24 hours under occlusion patch; 9 panellists
Description: 10 gsm polypropylene nonwoven textile was cut into 11 mm diameter circles. Each circle was individually treated with water based dispersions then dried to achieve either a treat rate of a) 1% sodium lauryl sulphate (SLS, Sample A) based on weight of textile, or b) 1% SLS and 2% di-PPG-2 myreth-10 adipate (a diester skin care additive in accordance with the present invention, Sample B) based on percentage by weight of textile. SLS is a known skin irritant, and so provides a good model for assessing skin irritancy in test subjects/panellists.
An irritation panel study was carried out, the study included 9 individual panellists. […]
as §1, §2

di-PPG-2 myreth-10 adipate [diester skin care additive]
skin irritation from nonwoven in contact with skin (combined average TEWL) compared to low-irritancy hygiene finish alone [1]: reduced skin irritation | skin irritation from nonwoven in contact with skin (combined average TEWL) compared to low-irritancy hygiene finish alone [2]: reduced skin irritation | decrease in skin water loss (combined average TEWL of all panellists) [3]: 31%
